# According to paper PMC5937946 (Biochemistry, 2017):
# Like-named read-outs stand apart in the source and are kept apart here.
# Columns and labels:
# [1] = system: C. albicans (ATCC, SC5314)
# [2] = system: C. albicans cell-associated Cu; test: ICP-MS of cell-associated Cu content; assay type: cell-based, Candida albicans; settings: cells grown overnight with BCS
# [3] = pH 7.4; cited from earlier work
# [4] = pH 7.4; cited from earlier work; remark: listed apart in the source
# [5] = system: C. albicans (ATCC, SC5314); test: Antifungal susceptibility assay; settings: for growth inhibition of C. albicans by metal ion alone: concentration range tested 0–100 µM, no peptide
smiles,measurement,setting,value
"Cc1cc(-c2ccc(S(=O)(=O)O)cc2)c2ccc3c(-c4ccc(S(=O)(=O)O)cc4)cc(C)nc3c2n1 [BCS, bathocuproine disulphonate]","concentrations well tolerated by C. albicans, ligand alone",[1],≤ 2000 µM
same,decrease in cell-associated Cu compared to basal level,[2],70%
"O=S(=O)([O-])c1ccc(-c2nnc(-c3ccccn3)nc2-c2ccc(S(=O)(=O)[O-])cc2)cc1.[Na+].[Na+] [Fz, Ferrozine]",log KFz2Cu(I),[3],11.56
"O=C(O)CN(CC(=O)O)CC(=O)O [NTA, nitrilotriacetic acid]",log KNTA(Cu(II)),[4],10.68
"O=S(=O)([O-])[O-].[Cu+2] [CuSO4, copper sulfate]",growth inhibition of C. albicans by metal ion alone,[5],Neither Cu(II) nor Fe(III) by themselves inhibited growth
"O=C(O)CN(CCN(CC(=O)O)CC(=O)O)CC(=O)O [EDTA, ethylenediaminetetraacetic acid]","concentrations well tolerated by C. albicans, ligand alone",[5]; initial susceptibility testing of the ligands alone,≤ 250 µM
"[Cl][Fe]([Cl])[Cl] [Fe(III), FeCl3]",growth inhibition of C. albicans by metal ion alone,[5],Neither Cu(II) nor Fe(III) by themselves inhibited growth
